Publication PMC4508061, “Selectivity Profiling and Biological Activity of Novel β-Carbolines as Potent and Selective DYRK1 Kinase Inhibitors” (PLoS ONE, 2015)
Read-outs that look alike come from different tables or passages of the source.

Experiments:
DYRK1A [1] = biological target: T1, DYRK1A (Homo sapiens, UniProt Q13627); test: SF3B1 Thr434 phosphorylation in HeLa cells (immunoblot); assay type: cell-based; conditions: HeLa cells expressing GFP-SF3B1-NT, 18 h
T1 construct: purchased ProQinase (Freiburg, Germany)
Method: Fig 4 Inhibition of SF3B1 phosphorylation by DYRK1A in HeLa cells. HeLa cells expressing GFP-SF3B1-NT were treated with the indicated compounds for 18 h. The phosphorylation state of SF3B1 was determined by immunoblotting with pT434 antibody, and the results were normalized to the total amount of SF3B1 immunoreactivity. A, Representative western blots. […] The vertical line indicates where irrelevant lanes were deleted from the final image. B, The column diagram summarizes the quantitative evaluation of 3–6 experiments for each compound (means + SD).
(500 ng/well) using FuGENE HD (Promega, Mannheim, Germany).

DYRK1A [2] = biological target: T1, DYRK1A; test: Kinase-GLO luminescent kinase assay; assay type: biochemical; conditions: 1 μM compound; means of at least 3 measurements
Method: (§1) Bacterial expression plasmids for GST-DYRK1A-ΔC and GST-DYRK2 have been described earlier. […] Expression in logarithmically growing E. coli culture was performed for 3 h at 37°C (GST-DYRK1A-ΔC and GST-DYRK2), 3 h at 26°C (GST-HIPK2cat), over night at 28°C (GST-CLK1cat) or over night at room temperature (GST-DYRK1Bcat).
(§2) Compounds were screened for inhibitory effects against GST-DYRK1A-ΔC, GST-DYRK1Bcat, GST-DYRK2, GST-CLK1cat or GST-HIPK2cat using the Kinase-GLO Luminescent Kinase Assay from Promega. Assays were performed in a total volume of 10 μL in kinase-buffer (25 mM Hepes pH 7.4, 0.5 mM DTT, 5 mM MgCl2, 5 μM ATP) with appropriate peptide substrates (20 μM DYRKtide for the DYRKs and 100 μM DYRKtide for HIPK2, […]; or 100 μM RS domain-derived peptide for CLK1, […]). Assays were started with this amount of a kinase preparation that consumed approximately 90% of the ATP in the assay (linear range of the kinase titration curve). The reactions were run at room temperature for 30 min before 10 μL Kinase-GLO reagent was added. After incubation at room temperature for additional 10 min, luminescence was recorded for 1 s.

DYRK2 [3] = biological target: T2, DYRK2 (Homo sapiens, UniProt Q92630); test: Kinase-GLO luminescent kinase assay; assay type: biochemical; conditions: 1 μM compound; means of at least 3 measurements
T2 construct: purchased ProQinase (Freiburg, Germany)
T2 sequence (Q92630 1-601): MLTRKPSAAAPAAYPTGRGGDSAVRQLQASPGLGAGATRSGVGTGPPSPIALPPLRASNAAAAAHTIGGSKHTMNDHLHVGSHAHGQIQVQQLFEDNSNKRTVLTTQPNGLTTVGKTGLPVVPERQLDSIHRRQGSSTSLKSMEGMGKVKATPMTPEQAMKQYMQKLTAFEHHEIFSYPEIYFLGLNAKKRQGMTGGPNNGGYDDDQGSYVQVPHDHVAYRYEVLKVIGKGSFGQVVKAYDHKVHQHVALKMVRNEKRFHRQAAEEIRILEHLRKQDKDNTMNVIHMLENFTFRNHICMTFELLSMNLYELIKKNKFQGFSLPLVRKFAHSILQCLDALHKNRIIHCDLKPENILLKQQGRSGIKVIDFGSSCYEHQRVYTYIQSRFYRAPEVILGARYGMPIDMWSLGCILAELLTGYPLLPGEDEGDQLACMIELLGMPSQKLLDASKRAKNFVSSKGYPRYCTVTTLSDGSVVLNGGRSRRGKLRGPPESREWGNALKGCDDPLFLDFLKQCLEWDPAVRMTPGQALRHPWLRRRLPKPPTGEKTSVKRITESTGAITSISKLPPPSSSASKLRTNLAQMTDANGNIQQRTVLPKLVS
Method: as §1, §2

DYRK1A [4] = conditions: cited from earlier work
DYRK2 [5] = biological target: T2, DYRK2; conditions: cited from earlier work
Haspin = conditions: cited from earlier work
CLK1 [6] = biological target: T3, CLK1 (Homo sapiens, UniProt P49759); test: Kinase-GLO luminescent kinase assay; assay type: biochemical; set-up: made in house; host or cells: E. coli; conditions: 1 μM compound; means of at least 3 measurements
Method: as §1, §2

DYRK1B [7] = biological target: T4, DYRK1B (Homo sapiens, UniProt Q9Y463); test: Kinase-GLO luminescent kinase assay; assay type: biochemical; set-up: made in house; host or cells: E. coli; conditions: 1 μM compound; means of at least 3 measurements
Method: as §1, §2

HIPK2 [8] = biological target: T5, HIPK2 (Homo sapiens, UniProt Q9H2X6); test: Kinase-GLO luminescent kinase assay; assay type: biochemical; set-up: made in house; host or cells: E. coli; conditions: 10 μM compound; means of at least 3 measurements
Method: as §1, §2

CLK1 [9] = biological target: T3, CLK1; set-up: purchased ProQinase (Freiburg, Germany); conditions: cited from earlier work
DYRK1B [10] = biological target: T4, DYRK1B; set-up: purchased ProQinase (Freiburg, Germany); conditions: cited from earlier work
HIPK1 = HIPK1 (Homo sapiens, UniProt Q86Z02); set-up: purchased ProQinase (Freiburg, Germany); conditions: cited from earlier work
Sequence of HIPK1 (Q86Z02 whole entry): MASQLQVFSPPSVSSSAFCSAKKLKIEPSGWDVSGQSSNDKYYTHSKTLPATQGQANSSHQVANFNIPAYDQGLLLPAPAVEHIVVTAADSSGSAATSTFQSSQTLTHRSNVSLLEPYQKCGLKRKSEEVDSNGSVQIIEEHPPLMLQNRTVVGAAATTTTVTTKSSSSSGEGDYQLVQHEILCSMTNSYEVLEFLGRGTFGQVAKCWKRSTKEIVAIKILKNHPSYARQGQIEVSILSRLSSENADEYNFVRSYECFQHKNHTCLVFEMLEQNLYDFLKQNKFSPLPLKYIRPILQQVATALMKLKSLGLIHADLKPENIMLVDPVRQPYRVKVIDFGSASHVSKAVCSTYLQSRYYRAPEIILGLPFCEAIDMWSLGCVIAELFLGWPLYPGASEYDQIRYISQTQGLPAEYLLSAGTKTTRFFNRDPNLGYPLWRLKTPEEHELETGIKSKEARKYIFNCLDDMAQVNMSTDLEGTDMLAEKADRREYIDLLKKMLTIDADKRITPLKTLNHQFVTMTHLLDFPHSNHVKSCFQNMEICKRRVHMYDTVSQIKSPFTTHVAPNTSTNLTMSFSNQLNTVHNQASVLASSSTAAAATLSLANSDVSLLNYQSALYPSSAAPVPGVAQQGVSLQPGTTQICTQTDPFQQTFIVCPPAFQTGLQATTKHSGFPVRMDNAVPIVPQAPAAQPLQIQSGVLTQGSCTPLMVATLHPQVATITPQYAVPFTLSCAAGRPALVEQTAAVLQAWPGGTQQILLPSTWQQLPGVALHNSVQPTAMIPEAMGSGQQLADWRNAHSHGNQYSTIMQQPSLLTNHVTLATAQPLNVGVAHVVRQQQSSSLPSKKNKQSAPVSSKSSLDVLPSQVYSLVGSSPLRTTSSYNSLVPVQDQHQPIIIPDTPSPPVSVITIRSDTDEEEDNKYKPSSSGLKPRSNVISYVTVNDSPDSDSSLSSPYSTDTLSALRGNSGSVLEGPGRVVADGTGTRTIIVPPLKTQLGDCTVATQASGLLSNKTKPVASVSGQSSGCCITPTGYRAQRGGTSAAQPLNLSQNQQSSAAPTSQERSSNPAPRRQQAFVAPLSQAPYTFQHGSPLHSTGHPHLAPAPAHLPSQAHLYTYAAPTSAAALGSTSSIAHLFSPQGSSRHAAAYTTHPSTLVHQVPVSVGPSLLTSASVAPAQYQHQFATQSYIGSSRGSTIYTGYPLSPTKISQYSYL

HIPK2 [11] = biological target: T5, HIPK2; set-up: purchased ProQinase (Freiburg, Germany); conditions: cited from earlier work
HIPK3 = HIPK3 (Homo sapiens, UniProt Q9H422); set-up: purchased ProQinase (Freiburg, Germany); conditions: cited from earlier work
Sequence of HIPK3 (Q9H422 whole entry): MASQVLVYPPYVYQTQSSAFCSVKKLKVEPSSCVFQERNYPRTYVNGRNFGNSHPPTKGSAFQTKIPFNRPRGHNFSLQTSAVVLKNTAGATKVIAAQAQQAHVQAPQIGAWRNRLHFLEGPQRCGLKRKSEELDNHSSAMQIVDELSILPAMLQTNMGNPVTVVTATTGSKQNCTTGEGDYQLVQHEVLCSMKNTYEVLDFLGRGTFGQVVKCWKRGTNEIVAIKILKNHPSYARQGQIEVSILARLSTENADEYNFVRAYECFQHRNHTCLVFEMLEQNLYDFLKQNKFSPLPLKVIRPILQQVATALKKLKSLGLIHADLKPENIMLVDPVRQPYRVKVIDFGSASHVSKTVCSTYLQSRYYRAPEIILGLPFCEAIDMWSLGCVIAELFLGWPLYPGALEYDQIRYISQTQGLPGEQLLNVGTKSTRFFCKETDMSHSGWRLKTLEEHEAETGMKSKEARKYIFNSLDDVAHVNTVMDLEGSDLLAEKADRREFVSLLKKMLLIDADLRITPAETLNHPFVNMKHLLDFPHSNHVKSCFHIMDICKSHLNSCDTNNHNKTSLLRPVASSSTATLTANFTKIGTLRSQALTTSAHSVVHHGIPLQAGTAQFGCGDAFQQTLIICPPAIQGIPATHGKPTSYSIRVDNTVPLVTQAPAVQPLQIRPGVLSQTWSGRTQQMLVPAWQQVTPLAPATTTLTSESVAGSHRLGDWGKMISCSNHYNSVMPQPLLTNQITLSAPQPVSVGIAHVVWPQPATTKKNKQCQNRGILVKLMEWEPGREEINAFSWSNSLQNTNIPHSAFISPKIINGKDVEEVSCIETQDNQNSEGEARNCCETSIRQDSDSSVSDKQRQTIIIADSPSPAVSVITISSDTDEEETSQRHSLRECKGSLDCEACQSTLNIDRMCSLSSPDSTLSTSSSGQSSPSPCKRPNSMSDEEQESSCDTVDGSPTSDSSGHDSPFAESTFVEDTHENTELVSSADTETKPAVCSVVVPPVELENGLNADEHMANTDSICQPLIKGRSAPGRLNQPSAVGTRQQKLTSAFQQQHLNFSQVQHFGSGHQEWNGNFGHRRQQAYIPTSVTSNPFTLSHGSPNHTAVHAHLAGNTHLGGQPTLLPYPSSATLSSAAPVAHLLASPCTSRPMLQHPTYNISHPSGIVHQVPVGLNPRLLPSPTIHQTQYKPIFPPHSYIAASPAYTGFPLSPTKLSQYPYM

HIPK4 = biological target: T6, HIPK4 (Homo sapiens, UniProt Q8NE63); set-up: purchased ProQinase (Freiburg, Germany); conditions: cited from earlier work
T6 sequence (Q8NE63 1-616): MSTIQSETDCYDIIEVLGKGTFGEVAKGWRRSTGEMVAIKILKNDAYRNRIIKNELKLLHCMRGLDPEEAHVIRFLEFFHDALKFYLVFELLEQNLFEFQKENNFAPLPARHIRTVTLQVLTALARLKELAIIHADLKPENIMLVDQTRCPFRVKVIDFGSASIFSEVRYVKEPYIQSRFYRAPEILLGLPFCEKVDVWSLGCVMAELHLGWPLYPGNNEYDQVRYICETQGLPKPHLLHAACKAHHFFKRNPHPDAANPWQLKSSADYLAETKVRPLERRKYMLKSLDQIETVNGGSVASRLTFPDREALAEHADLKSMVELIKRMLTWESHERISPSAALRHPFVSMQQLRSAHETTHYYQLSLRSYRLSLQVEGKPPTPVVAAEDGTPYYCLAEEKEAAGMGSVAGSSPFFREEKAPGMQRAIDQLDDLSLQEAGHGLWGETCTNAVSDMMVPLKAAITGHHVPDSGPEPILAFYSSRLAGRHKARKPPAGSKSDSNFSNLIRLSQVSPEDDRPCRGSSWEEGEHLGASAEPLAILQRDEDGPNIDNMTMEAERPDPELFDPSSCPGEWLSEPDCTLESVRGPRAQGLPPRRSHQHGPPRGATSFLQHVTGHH

IRAK1 = IRAK1 (Homo sapiens, UniProt P51617); set-up: purchased ProQinase (Freiburg, Germany); conditions: 10 μM; cited from earlier work
PIM1 = PIM1 (Homo sapiens, UniProt P11309); set-up: purchased ProQinase (Freiburg, Germany); conditions: cited from earlier work
Sequence of PIM1 (P11309 whole entry): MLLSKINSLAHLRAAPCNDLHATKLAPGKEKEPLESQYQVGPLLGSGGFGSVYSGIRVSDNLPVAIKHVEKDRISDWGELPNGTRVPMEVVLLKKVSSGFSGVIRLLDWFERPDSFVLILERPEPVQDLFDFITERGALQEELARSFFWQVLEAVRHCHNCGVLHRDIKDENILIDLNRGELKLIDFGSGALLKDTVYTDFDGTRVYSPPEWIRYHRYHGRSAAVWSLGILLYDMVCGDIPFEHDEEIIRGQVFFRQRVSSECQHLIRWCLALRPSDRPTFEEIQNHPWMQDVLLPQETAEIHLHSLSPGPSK

PIM2 = PIM2 (Homo sapiens, UniProt Q9P1W9); set-up: purchased ProQinase (Freiburg, Germany); conditions: cited from earlier work
Sequence of PIM2 (Q9P1W9 whole entry): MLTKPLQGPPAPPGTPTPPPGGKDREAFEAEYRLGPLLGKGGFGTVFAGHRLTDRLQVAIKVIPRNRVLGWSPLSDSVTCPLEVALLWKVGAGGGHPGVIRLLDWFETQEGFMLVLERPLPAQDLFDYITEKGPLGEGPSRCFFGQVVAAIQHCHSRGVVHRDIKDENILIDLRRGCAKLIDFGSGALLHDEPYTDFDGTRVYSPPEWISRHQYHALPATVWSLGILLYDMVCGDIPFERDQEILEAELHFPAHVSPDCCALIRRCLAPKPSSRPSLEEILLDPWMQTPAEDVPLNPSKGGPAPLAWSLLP

PIM3 = PIM3 (Homo sapiens, UniProt Q86V86); set-up: purchased ProQinase (Freiburg, Germany); conditions: cited from earlier work
CLK2 = biological target: T7, CLK2 (Homo sapiens, UniProt P49760); conditions: cited from earlier work
T7 construct: purchased ProQinase (Freiburg, Germany)
T7 sequence (P49760 whole entry): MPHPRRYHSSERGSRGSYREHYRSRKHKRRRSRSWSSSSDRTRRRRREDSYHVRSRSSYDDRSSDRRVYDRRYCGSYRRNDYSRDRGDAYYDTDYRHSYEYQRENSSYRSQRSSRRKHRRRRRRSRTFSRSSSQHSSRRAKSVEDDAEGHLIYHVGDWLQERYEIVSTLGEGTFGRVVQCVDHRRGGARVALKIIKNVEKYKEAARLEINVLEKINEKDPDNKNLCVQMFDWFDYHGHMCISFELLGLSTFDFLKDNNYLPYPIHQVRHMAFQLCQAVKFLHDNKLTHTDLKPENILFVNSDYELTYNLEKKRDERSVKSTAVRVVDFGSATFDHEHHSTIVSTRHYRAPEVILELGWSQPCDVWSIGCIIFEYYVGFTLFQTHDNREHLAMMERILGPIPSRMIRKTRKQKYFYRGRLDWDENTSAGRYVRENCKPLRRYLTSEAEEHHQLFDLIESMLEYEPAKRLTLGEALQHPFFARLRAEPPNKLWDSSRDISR

CLK3 = biological target: T8, CLK3 (Homo sapiens, UniProt P49761); conditions: cited from earlier work
T8 construct: purchased ProQinase (Freiburg, Germany)
T8 sequence (P49761 whole entry): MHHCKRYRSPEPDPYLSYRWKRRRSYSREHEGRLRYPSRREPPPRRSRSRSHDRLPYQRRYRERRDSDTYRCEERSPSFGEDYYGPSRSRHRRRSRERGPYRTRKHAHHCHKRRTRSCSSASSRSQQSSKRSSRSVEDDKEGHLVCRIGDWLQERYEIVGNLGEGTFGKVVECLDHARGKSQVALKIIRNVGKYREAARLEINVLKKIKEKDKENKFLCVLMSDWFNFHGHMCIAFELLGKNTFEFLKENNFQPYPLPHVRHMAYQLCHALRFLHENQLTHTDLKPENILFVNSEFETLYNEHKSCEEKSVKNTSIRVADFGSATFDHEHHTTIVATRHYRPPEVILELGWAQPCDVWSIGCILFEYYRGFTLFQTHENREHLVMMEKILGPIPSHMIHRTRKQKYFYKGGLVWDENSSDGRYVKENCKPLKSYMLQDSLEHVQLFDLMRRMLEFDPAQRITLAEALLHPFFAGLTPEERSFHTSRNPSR

DYRK3 = biological target: T9, DYRK3 (Homo sapiens, UniProt O43781); conditions: cited from earlier work
T9 construct: purchased ProQinase (Freiburg, Germany)
T9 sequence (O43781 1-588): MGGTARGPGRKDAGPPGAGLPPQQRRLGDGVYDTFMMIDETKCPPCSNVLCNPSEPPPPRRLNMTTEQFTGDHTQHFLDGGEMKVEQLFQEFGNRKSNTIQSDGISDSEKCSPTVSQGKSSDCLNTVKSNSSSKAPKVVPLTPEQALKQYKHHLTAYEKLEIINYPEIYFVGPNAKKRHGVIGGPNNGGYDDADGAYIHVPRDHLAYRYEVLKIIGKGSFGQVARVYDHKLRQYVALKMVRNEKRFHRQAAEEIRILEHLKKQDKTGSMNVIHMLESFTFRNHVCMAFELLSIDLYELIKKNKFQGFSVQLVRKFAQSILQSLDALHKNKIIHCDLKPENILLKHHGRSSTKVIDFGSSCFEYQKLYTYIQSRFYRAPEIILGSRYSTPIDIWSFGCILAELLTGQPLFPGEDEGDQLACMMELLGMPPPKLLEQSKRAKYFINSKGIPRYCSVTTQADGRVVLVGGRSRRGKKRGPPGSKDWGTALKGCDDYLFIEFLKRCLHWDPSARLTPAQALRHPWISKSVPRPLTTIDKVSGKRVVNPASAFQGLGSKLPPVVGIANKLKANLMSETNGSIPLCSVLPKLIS

MAO-A = system: MAO-A; set-up: method as in PMID 25240617; conditions: 1 μM; cited from earlier work
DYRK4 = biological target: T10, DYRK4 (Homo sapiens, UniProt Q9NR20); conditions: 5 μM; cited from earlier work
T10 construct: purchased ProQinase (Freiburg, Germany)
T10 sequence (Q9NR20 whole entry): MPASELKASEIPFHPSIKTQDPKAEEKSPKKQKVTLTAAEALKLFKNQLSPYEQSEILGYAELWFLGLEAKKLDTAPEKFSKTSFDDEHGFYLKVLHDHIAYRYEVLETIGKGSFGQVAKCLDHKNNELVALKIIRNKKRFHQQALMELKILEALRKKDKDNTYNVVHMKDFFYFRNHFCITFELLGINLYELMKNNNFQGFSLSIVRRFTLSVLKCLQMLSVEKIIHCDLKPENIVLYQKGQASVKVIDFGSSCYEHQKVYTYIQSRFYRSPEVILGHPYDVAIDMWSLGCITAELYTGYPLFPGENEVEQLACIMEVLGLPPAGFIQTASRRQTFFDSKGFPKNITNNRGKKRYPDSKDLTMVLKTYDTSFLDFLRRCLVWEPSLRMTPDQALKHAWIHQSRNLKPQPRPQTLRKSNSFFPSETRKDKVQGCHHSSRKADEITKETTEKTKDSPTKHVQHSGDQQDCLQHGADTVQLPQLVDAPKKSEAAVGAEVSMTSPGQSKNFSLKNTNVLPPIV

## N#CCn1c2c(Br)nccc2c2ccc(Cl)c(Cl)c21 [AnnH79]
DYRK1A [1]
  inhibition of DYRK1A-catalysed SF3B1 Thr434 phosphorylation: does not inhibit DYRK1A

## COc1ccc2c(c1)[nH]c1c(C)nccc12 [Harmine, harmine]
DYRK1A [2]
  Residual activity (% of control) DYRK1A: 27 % of control
DYRK2 [3]
  Residual activity (% of control) DYRK2: 92 % of control
DYRK1A [4]; 1 μM
  Residual activity (% of control): […]
DYRK1A [4]; 10 μM
  Residual activity (% of control): […]
DYRK1A [4]; range of published values, read-out: Inhibition of DYRK1A IC50
  IC50: […]
DYRK2 [5]; 1 μM
  Residual activity (% of control): 35 % of control
DYRK2 [5]; 10 μM
  Residual activity (% of control): 61 % of control
Haspin; ref Cuny et al. 38
  IC50: 590 nM
CLK1 [6]
  Residual activity (% of control) CLK1: 23 % of control
DYRK1B [7]
  Residual activity (% of control) DYRK1B: 11 % of control
HIPK2 [8]
  Residual activity (% of control) HIPK2: 79 % of control
CLK1 [9]; 10 μM
  Residual activity (% of control): […]
DYRK1B [10]; 10 μM
  Residual activity (% of control): […]
HIPK1; 1 μM
  Residual activity (% of control): 119 % of control
HIPK1; 10 μM
  Residual activity (% of control): 14 % of control
HIPK2 [11]; 1 μM
  Residual activity (% of control): 68 % of control
HIPK2 [11]; 10 μM
  Residual activity (% of control): 34 % of control
HIPK3; 1 μM
  Residual activity (% of control): 118 % of control
HIPK3; 10 μM
  Residual activity (% of control): 44 % of control
HIPK4; 10 μM
  Residual activity (% of control): 90 % of control
IRAK1
  Residual activity (% of control): 66 % of control
PIM1; 1 μM
  Residual activity (% of control): 74 % of control
PIM1; 10 μM
  Residual activity (% of control): 85 % of control
PIM2; 1 μM
  Residual activity (% of control): 101 % of control
PIM2; 10 μM
  Residual activity (% of control): 43 % of control
PIM3; 1 μM
  Residual activity (% of control): 74 % of control
PIM3; 10 μM
  Residual activity (% of control): 78 % of control

## COc1ccc2c3ccnc(C(F)(F)F)c3n(CCCCN)c2c1 [LDN-211898]
CLK2; 10 μM
  Residual activity (% of control): 1 % of control
CLK3; 10 μM
  Residual activity (% of control): 63 % of control
DYRK1A [4]; 10 μM
  Residual activity (% of control): 0 % of control
DYRK2 [5]; 10 μM
  Residual activity (% of control): 14 % of control
DYRK3; 10 μM
  Residual activity (% of control): 3 % of control
Haspin; 10 μM
  Residual activity (% of control): 0 % of control
CLK1 [9]; 10 μM
  Residual activity (% of control): 0 % of control
DYRK1B [10]; 10 μM
  Residual activity (% of control): 2 % of control
HIPK1; 10 μM
  Residual activity (% of control): 59 % of control
HIPK2 [11]; 10 μM
  Residual activity (% of control): 47 % of control
HIPK3; 10 μM
  Residual activity (% of control): 51 % of control
HIPK4; 10 μM
  Residual activity (% of control): 72 % of control
IRAK1
  Residual activity (% of control): 47 % of control
PIM1; 10 μM
  Residual activity (% of control): 9 % of control
PIM2; 10 μM
  Residual activity (% of control): 36 % of control
PIM3; 10 μM
  Residual activity (% of control): 11 % of control

## CCCCCCCn1c2cc(OC)ccc2c2ccnc(C)c21 [N9-heptyl harmine]
MAO-A
  inhibition of MAO-A: 13%
DYRK1A [4]; 1 μM
  inhibition of DYRK1A: 85%

## c1ccc(-c2cc(-c3cncs3)cs2)cc1 [Thiophene 29]
CLK2; 5 μM
  Residual activity (% of control): 28 % of control
CLK3; 5 μM
  Residual activity (% of control): 88 % of control
DYRK1A [4]; 5 μM
  Residual activity (% of control): 10 % of control
DYRK2 [5]; 5 μM
  Residual activity (% of control): 7 % of control
DYRK3; 5 μM
  Residual activity (% of control): 34 % of control
DYRK4
  Residual activity (% of control): 87 % of control
CLK1 [9]; 5 μM
  Residual activity (% of control): 4 % of control
DYRK1B [10]; 5 μM
  Residual activity (% of control): 0 % of control
HIPK1; 5 μM
  Residual activity (% of control): 96 % of control
HIPK4; 5 μM
  Residual activity (% of control): 93 % of control
PIM1; 5 μM
  Residual activity (% of control): 78 % of control
PIM2; 5 μM
  Residual activity (% of control): 93 % of control
